Results published in ChEMBL document CHEMBL3991601, “The target landscape of clinical kinase drugs” (Science, 2017).
Calls of active or inactive are those of the source. Rule as the data show it, for most assays here: actives have a measured Kd and inactives only a lower limit.

How the values were obtained:
[1] = target: T1, Serine/threonine-protein kinase 3 (Homo sapiens, UniProt Q13188)
T1 sequence (Q13188 whole entry): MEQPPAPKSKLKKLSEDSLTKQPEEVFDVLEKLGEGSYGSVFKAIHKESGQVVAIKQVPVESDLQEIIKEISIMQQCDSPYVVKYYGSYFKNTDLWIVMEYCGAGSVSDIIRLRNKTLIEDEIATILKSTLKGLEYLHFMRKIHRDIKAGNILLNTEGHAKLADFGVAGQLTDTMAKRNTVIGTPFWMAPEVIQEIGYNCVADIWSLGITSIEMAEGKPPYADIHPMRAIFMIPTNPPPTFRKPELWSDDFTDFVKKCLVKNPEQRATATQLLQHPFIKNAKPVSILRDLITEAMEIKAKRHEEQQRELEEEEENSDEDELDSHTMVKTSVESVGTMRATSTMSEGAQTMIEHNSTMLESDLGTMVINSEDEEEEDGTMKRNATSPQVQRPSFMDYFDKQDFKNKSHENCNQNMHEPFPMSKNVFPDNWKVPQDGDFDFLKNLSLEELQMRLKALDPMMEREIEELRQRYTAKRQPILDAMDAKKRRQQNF

[2] = target: T2, Tyrosine-protein kinase Tec (Homo sapiens, UniProt P42680)
T2 sequence (P42680 whole entry): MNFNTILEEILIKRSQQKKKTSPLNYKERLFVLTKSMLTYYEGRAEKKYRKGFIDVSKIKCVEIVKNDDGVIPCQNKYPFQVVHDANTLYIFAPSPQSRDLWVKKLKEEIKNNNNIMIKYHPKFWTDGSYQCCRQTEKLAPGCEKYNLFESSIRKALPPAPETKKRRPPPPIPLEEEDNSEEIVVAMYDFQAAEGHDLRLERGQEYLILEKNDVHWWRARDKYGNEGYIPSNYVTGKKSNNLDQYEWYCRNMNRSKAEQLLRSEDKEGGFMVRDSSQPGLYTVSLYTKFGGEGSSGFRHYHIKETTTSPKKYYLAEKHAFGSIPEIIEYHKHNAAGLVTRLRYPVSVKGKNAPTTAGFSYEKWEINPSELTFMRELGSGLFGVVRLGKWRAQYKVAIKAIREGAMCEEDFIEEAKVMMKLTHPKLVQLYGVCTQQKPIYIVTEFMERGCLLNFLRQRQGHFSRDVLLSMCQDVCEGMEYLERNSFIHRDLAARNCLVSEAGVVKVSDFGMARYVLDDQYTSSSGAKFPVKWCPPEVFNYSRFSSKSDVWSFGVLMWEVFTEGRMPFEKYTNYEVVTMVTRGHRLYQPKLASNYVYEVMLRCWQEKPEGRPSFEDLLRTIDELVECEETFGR

[3] = target: T3, Serine/threonine-protein kinase Chk1 (Homo sapiens, UniProt O14757)
T3 sequence (O14757 whole entry): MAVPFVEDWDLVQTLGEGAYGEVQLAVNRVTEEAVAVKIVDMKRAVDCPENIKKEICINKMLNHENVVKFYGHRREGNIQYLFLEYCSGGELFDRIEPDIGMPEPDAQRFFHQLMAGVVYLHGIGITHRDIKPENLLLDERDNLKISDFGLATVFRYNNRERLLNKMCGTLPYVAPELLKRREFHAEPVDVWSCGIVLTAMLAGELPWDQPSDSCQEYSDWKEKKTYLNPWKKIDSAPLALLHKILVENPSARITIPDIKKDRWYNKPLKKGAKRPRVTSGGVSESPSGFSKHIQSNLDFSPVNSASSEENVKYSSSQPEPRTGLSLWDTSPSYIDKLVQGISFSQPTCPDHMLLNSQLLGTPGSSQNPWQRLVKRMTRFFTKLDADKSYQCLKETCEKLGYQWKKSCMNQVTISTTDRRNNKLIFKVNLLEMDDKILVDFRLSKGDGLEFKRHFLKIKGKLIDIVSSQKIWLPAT

[4] = target: T4, Serine/threonine-protein kinase Nek1 (Homo sapiens, UniProt Q96PY6)
T4 sequence (Q96PY6 whole entry): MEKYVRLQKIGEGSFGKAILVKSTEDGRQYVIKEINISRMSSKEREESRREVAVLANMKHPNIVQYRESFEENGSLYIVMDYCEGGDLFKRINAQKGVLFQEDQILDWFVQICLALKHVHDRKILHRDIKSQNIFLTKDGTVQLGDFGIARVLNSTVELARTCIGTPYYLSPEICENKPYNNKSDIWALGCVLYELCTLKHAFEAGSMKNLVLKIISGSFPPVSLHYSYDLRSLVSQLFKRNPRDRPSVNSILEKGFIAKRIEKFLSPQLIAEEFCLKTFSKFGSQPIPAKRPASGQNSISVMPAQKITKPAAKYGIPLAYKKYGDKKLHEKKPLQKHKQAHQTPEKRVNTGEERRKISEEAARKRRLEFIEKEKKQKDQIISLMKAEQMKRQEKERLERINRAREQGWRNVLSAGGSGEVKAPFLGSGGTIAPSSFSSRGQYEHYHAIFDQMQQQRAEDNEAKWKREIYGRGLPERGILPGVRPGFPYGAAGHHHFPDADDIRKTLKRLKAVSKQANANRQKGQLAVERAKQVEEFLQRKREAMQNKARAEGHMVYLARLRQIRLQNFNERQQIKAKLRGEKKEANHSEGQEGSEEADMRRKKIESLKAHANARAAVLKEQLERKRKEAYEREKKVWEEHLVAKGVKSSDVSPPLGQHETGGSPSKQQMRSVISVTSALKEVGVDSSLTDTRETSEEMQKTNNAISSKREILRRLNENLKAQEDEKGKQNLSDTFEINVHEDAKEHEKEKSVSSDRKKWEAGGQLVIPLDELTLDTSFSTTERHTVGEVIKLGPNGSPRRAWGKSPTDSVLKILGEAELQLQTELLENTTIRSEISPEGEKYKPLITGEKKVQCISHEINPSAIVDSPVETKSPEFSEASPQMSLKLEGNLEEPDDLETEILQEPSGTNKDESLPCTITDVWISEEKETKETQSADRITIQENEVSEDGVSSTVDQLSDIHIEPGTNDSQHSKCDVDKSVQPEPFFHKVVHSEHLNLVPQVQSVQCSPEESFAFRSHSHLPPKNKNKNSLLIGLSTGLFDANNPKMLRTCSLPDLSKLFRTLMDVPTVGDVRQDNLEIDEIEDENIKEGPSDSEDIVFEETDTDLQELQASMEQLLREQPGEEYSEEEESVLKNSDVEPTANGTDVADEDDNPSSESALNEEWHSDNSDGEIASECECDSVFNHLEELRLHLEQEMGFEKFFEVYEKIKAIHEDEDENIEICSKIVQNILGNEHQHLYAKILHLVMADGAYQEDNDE

LIM domain kinase 1 = LIM domain kinase 1 (Homo sapiens, UniProt P53667)
LIM domain kinase 1, sequence (P53667 whole entry, the tested form may be a part): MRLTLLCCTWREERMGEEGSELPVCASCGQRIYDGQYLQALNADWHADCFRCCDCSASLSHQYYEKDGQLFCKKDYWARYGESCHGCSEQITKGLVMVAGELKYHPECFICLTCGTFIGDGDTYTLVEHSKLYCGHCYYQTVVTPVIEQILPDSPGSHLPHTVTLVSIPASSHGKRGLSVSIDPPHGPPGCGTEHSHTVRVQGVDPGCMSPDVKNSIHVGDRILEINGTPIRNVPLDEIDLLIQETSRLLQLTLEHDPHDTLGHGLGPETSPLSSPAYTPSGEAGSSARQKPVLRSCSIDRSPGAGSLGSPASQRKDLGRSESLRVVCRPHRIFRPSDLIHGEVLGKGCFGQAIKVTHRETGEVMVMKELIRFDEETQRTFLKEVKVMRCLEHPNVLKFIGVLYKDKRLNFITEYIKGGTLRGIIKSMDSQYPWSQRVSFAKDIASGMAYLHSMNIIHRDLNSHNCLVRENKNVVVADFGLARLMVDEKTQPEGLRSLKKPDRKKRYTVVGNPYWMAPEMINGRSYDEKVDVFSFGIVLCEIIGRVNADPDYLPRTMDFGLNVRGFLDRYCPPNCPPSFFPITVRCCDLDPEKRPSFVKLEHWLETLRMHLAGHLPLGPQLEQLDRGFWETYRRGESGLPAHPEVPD

Measured: Kd
Also: in the data inactive means no Kd found up to 30 µM.

CNS(=O)(=O)Nc1nccc(Cc2c(C)c3ccc(Oc4ncccn4)cc3oc2=O)c1F [AVUTOMETINIB]
inactive: [1] > 30 µM | [2] > 30 µM | [3] > 30 µM | [4] > 30 µM | LIM domain kinase 1 > 30 µM
